The results in this text go back to US6410554B1, “Combination therapy for the treatment of benign prostatic hyperplasia” (Merck & Co., Inc., priority 1998, dated 2002).

Counter-ions that a name gives are not always drawn.

For `C[C@@H]1OC(=O)N(C(=O)NCCCN2CCC(c3ccc(F)cc3)CC2)[C@H]1c1ccc(F)c(F)c1` (as salt: hydrochloride), the melting point was 80 to 83 °C.
